The source of these data is patent publication US20020120098A1, “Enhanced stimulation of erythropoiesis” (priority 1996, published 2002).

One data set deals with CFU-GM. As to the kind of experiment: Colony formation assay (CFA), cord blood LDMNC: CFU-GM colonies. It is filed as cell-based, human. The following applies: 2 U/ml Epo; for effect on CFU-GM numbers (in words): ambient O2; for CFU-GM progenitor number, fold increase: ambient O2, vs vehicle control. The protocol:
This technique, referred to as the colony formation assay (CFA), is the most widely used biological assay to identify and enumerate erythroid progenitors present in hematopoietic tissue such as blood and bone marrow. Cell populations containing erythroid progenitors are plated in semi-solid suspensions of methyl cellulose, agar, low melting agarose or related substances in nutrient culture medium containing 1-3 U/ml Epo and 10 ng/ml IL-3 to specifically stimulate erythroid progenitors. Plates are incubated at 37° C. for 14 days during which time the erythroid progenitors form characteristic hemoglobinized (red) colonies. Two distinct but related erythroid progenitors can be distinguished based on colony size and morphology: BFU-E, the most primitive recognizable erythroid progenitor forms large multilobular colonies whereas the more mature CFU-E forms smaller spherical colonies.
Adult hemoglobin was purified according to U.S Pat. Nos. 5,439,591 and 5,545,328 to obtain HAo and HEMOLINK™ was prepared from HAo according to U.S. Pat. No. 5,532,352. Human umbilical cord blood intended for discard was collected from the umbilical vein of placentas immediately postpartum into 10 ml vacutainer tubes containing 143 USP units/ml sodium heparin. Low density mononuclear cells were separated from red blood cells by centrifugation over a 1.077 g/ml density gradient Cells removed from the plasma/density gradient interface were incubated overnight in a tissue culture flask with 10 ml cell culture medium containing 10% fetal bovine serum, and non-adherent LDMNC were further purified with an additional density gradient step. The LDMNC were then plated into colony formation assays (CFA) on the second day of isolation. In the CFA, LDMNC were plated at a density of 1×10^5 cells/ml in Iscoves modified Dulbeccos cell culture medium containing 0.8% methyl-cellulose, 30% fetal bovine serum, 1% bovine serum albumin, 0.1 mM 2-mercaptoethanol and 2 mM L-glutamine. Unless indicated otherwise, under standard CFA conditions 2 U/ml Epo and 10 ng/ml IL-3 are added to the formulation to stimulate hematopoietic progenitor growth, specifically BFU-E, CFU-E and CFU-GM.
Each condition was tested in duplicate in from 2-18 independent experiments. Cultures were maintained in a humidified incubator at 37° C., 5% CO2 and ambient oxygen tensions. The number of hematopoietic progenitors was scored between days 13-15 by counting the number and types of colonies present.
The effect of the various additives on the inhibitory effect of succinylacetone (SA), a heme synthesis inhibitor, on erythroid progenitors was determined. Primary LDMNC were cultured in methyl cellulose as described in Example 1. Cord blood LDMN were plated in the presence of 1.0 mg/ml HAo (15.6 μM; n=12) or HEMOLINK™ (15.6 μM; n=5), 100 μM hemin (n=12), 250 μM FeCl3 (n=11) or no addition (n=12), in absence or presence of 0.5 mM SA. Cultures were maintained in a humidified chamber at 37° C., 5% CO2, and ambient oxygen tensions for 14 days.
HEMOLINK™ was evaluated for its ability to protect erythroid progenitor cells from toxicity due to ganciclovir. Cord blood LDMNC were set up in CFAs in the presence and absence of 1 mg/ml HEMOLINK™ plus 0, 0.1, 1.0, 10, 50 or 100 μM ganciclovir. Conditions for the CFA were similar to those described in Examples 1-4. […] All data are expressed relative to the number of colonies of control plates without HEMOLINK™. The hematopoietic progenitors display different sensitivities to ganciclovir. CFU-E were unaffected by 1 μM ganciclovir. However, a similar inhibition of BFU-E occurs at a 50-fold lower dose of ganciclovir (1 μM). […] Due to the difficulty in scoring CFU-GM in the presence of hemoglobin precipitates, as previously noted, they could not be accurately measured under these conditions. Thus, HEMOLINK™ reduces toxicity of ganciclovir to erythroid progenitors with the most pronounced effect on BFU-E cells.

Data set [1] in a line: Half-life and blood level of Epo versus HEMOLINK after single i.v. administration. It is filed as in vivo. The following applies: for HEMOLINK level: single i.v. 4 ml/kg. An excerpt: Another strategy for the co-administration of Epo and hemoglobin is to reduce the number of Epo administrations required during therapy. Several Epo therapies follow the regimen of three weekly injections, either intravenously or subcutaneously. Multiple low dose or single high dose injections of Epo are required due to its relatively short half-life in vivo. […] HEMOLINK™ has a longer half-life. […] Longer half-life of the cross-linked hemoglobin can therefore compensate for Epo which may decline at a much faster rate. Thus, hemoglobin co-administered with Epo could prolong the effectiveness of Epo and therefore this combination therapy can be used to reduce the required frequency of Epo administrations.

The nature of data set [2]: Safety in animal experiments and Phase I clinical trial. It is filed as in vivo. The following applies: series of animal experiments and Phase I clinical trial in humans. The source says:
A preferred embodiment of the present invention is the therapeutic application of hemoglobin to the treatment of anemia. HEMOLINK™ is a hemoglobin based oxygen carrier intended for use as a red blood cell substitute at doses that may exceed. 100 g. […] The present invention specifically proposes the repetitive administration of HEMOLINK™ in small doses to patients with anemia of any type. The anemias most amenable to hemoglobin therapy include: (1) anemias due to insufficient Epo production, including chronic renal failure, malaria, AIDS, rheumatoid arthritis, anemia of cancer, sickle cell anemia, prematurity and late anemia associated with Rhesus hemolytic disease of the newborn; (2) anemias due to inadequate iron incorporation, including iron-deficient anemias and anemias associated with chronic disease (e.g. infection, inflammation, trauma, or neoplastic diseases); and (3) anemias due to bone marrow failure that may be idiopathic or drug-induced.

Setting [3] is: dose 1000 μg/ml, underestimated due to hemoglobin precipitates.

Consider `[Cl][Fe]([Cl])[Cl]` [FeCl3], for which the “effect on CFU-GM numbers (in words)” value in the data set with CFU-GM was “unaffected”. For the same compound, the “CFU-GM progenitor number, fold increase” value worked out at 1.2 fold in the data set with CFU-GM (dose 1.0 μM), 1.0 fold with CFU-GM (dose 10 μM), 0.8 fold in the data set with CFU-GM (dose 100 μM) and 1.3 fold in the data set on CFU-GM (dose 250 μM).

Turning to `C=CC1=C(C)C2=Cc3c(C=C)c(C)c4[n]3[Fe-2]35([Cl])[n]6c(c(C)c(CCC(=O)O)c6=CC6=[N+]3C(=C4)C(C)=C6CCC(=O)O)=CC1=[N+]25` [hemin], the “effect on CFU-GM numbers (in words)” value in the data set with CFU-GM is reported as “unaffected”. For the same compound, the “CFU-GM progenitor number, fold increase” value was 1.5 fold with CFU-GM (dose 1.0 μM); 1.4 fold with CFU-GM (dose 10 μM); 1.2 fold with CFU-GM (dose 64 μM); 1.0 fold with CFU-GM (dose 100 μM); 1.4 fold in the data set on CFU-GM (dose 250 μM).

Take “HAo: adult human hemoglobin obtained from red blood cells and purified by displacement chromatography; uncross linked product”: the “effect on CFU-GM numbers (in words)” value in the data set with CFU-GM is “does not stimulate CFU-GM”. The “CFU-GM progenitor number, fold increase” value in the data set with CFU-GM (dose 10 μg/ml) is listed as 1.4 fold; in the data set on CFU-GM (dose 100 μg/ml) it was 1.5 fold; with CFU-GM (dose 500 μg/ml), 1.2 fold; in the data set on CFU-GM (setting [3]) it was “**0.5 fold”.

Turning to “HEMOLINK™: chemically crosslinked hemoglobin prepared by treating human hemoglobin with a polyaldehyde (O-raffinose)”, the “CFU-GM progenitor number, fold increase” value with CFU-GM (setting [3]) is “*0.6 fold”. The HEMOLINK level in data set [1] (0 hours post administration) was 4.7 mg/mL; in data set [1] (21 hours post administration), 1.75 mg/mL; in data set [1] (42 hours post administration), 0.81 mg/mL; in data set [1] (63 hours post administration) it was 0.39 mg/mL; in data set [1] (84 hours post administration), 0.19 mg/mL. The “half-life of the 64 kD fraction” value in data set [1] (0.4 g HEMOLINK/kg body weight) is approximately 7 h. Also, in data set [1] (0.4 g HEMOLINK/kg body weight), the “half-life of the >64 kD fraction” value is approximately 21 h. In addition, the safety entry in data set [2] is given as “demonstrated to be safe”.
